Entries after “also recorded” stand apart in the source; their conditions may differ.
Columns and labels:
effects of nibuphin = experiment: synergism with nibuphin; settings: in vivo
arecoline tremor = experiment: M-cholinolytic effect: arecoline tremor in mice; assay type: in vivo
local irritant effect = settings: in vivo
[1] = system: sympathoadrenal and hypothalamohypophysioadrenal systems; experiment: clinical studies of vegetovascular dystonia; assay type: in vivo, patients; settings: 32 cases
cumulative effect = settings: in vivo
solubility = assay type: physicochemical
Excerpt: Hydrazide of diphenylphosphinylacetic acid is a bitter-tasting odorless white crystalline powder. It is soluble in water (1:100), alcohol and chloroform, but insoluble in benzene and ether.

[2] = behavior of rabbits after intramuscular administration; assay type: in vivo; settings: 50 mg/kg
[3] = clinical: hypothalamic syndrome with sympathoadrenal crises; assay type: in vivo, patients; settings: of 20 cases
Excerpt: In 12 cases the number and intensity of fits were reduced and general improvement was observed. Earlier, all the patients had been repeatedly admitted to neurological hospitals where they were subjected to different forms of treatment, including drug therapy with the use of tranquilizers of the benzodiazepin derivatives. The effect of such treatment was quite moderate and unstable and was only manifest in a reduced number of fits and a slight improvement of the general state of the patients.

[4] = prolonged treatment, anatomical and histological examination, mice; assay type: in vivo; settings: intraperitoneal, 35 mg/kg (1/9 LD50)
[5] = system: separated intestines; blood pressure and respiration of rabbits; experiment: peripheral adrenolytic effect: separated intestines, blood pressure and respiration of rabbits
[6] = system: apomorphine toxicity and stereotypy; experiment: apomorphine toxicity and stereotypy; assay type: in vivo, mice
[7] = system: convulsant effects of corasole and caffeine; experiment: sensitivity of mice to the convulsant effects of corasole and caffeine; assay type: in vivo
[8] = system: hypothermal effect of aminazine (chlorpromazine); experiment: hypothermal effect of aminazine (chlorpromazine); settings: in vivo
[9] = system: serotonin content in brain tissue; experiment: serotonin content in brain tissue of mice; assay type: in vivo
[10] = acute toxicity / tolerance dose; settings: in vivo
body temperature of mice = assay type: in vivo; settings: for decrease of body temperature (hypothermal effect): 200 mg/kg (DMT)
[11] = clinical safety on prolonged use; assay type: in vivo, patients
Excerpt: The proposed preparation can be used for treating both young and old patients, as well as those having concomitant diseases of internal organs.

[12] = prolonged treatment, anatomical and histological examination, rabbits; assay type: in vivo; settings: intramuscular, 50 mg/kg
monoaminooxidaze = monoaminooxidaze suppression, inferred from hexenal sleep; assay type: in vivo; settings: concluded from equal hexenal sleep at 2 and 22 hours
Excerpt: (§1) A dose as low as 1/5 DMT potentiates barbamil.

[13] = clinical: temporal lobe epilepsy; assay type: in vivo, patients
Excerpt: Good results were also obtained in treating 18 cases of temporal lobe epilepsy with predominant psychosensory, psychomotor, vegetative and emotional fits. For a number of years, all the patients had been given anticonvulsants and tranquilizers which were derivatives of benzodiazepin. In most of these cases conventional treatment had been ineffective. The proposed preparation brought about a dramatic change: in 14 cases the attacks either ceased completely or their frequency was reduced by more than half.

[14] = clinical: neurasthenia with vegetovascular dystonia; assay type: in vivo, patients
[15] = sedative effect / depression in animals; assay type: in vivo, mice and rats
[16] = clinical: acute alcoholic abstinence; assay type: in vivo, patients; settings: of 30 alcoholics; first two days; placebo 10 of 30
Excerpt: On the whole, the proposed preparation reduced the period of abstinence 2- to 3-fold.

[17] = chemical stability / shelf life; assay type: physicochemical
Excerpt: Hydrazide of diphenylphosphenylacetic acid is a bitter-tasting odorless white powder.

[18] = system: hexenal, barbamil, urethane and chloral hydrate effect; experiment: interaction with narcotics and soporifics (hexenal, barbamil, urethane, chloral hydrate); assay type: in vivo
Excerpt: as §1

[19] = system: convulsions caused by corasole, strychnine, and electroconvulsion therapy; experiment: convulsions caused by corasole, strychnine and electroconvulsion therapy; assay type: in vivo, animals
[20] = system: epileptic seizures caused by microinjections of penicillin; experiment: epileptic seizures caused by microinjections of penicillin into the hippocamp; assay type: in vivo; settings: rabbits, 20 to 100 mg/kg
[21] = system: nicotine-induced convulsions; experiment: nicotine-induced convulsions in mice; assay type: in vivo
[22] = clinical investigation in neurotic and psychic disorders
phenamine stereotypy = phenamine stereotypy in rats
cholinesterase = experiment: anticholinesterase properties
[23] = system: orientating reaction in mice; experiment: orientating reaction in mice; assay type: in vivo; settings: intra-abdominal, 1/8 DMT, one hour before
lethal dose of cocaine = lethal dose of cocaine in mice
[24] = system: action of serotonin on a separated rat's intestine; experiment: separated intestine with serotonin

## NNC(=O)CP(=O)(c1ccccc1)c1ccccc1 [Hydrazide of diphenylphosphinylacetic acid]
Effects of nibuphin
  synergism with nibuphin: synergism
Arecoline tremor; mice
  effect on arecoline tremor: does not mitigate arecoline tremor in mice
  effect on duration of arecoline tremor: nor does it affect its duration
Arecoline tremor; mouse, in vivo
  M-cholinolytic effect: no M-cholinolytic effect
Local irritant effect
  local irritant effect: no local irritant effect
[1]
  excretion of adrenalin and 17-oxycorticosteroids with urine: pronounced normalization
  extraction of norepinephrine: tendenecy towards a normalized extraction
[1]; course of treatment
  functions of sympathoadrenal and hypothalamohypophysioadrenal systems: normalized the functions
Cumulative effect
  cumulative effect: no cumulative effect
solubility; alcohol
  solubility in alcohol: soluble
solubility; benzene
  solubility in benzene: insoluble
solubility; chloroform
  solubility in chloroform: soluble
solubility; ether
  solubility in ether: insoluble
[2]
  effect on animals' behavior: in no way affected the animals's behavior
[3]
  cases with marked improvement (crises ceased, working capacity restored): 5 cases
  cases with number and intensity of fits reduced and general improvement: 12 cases
[4]
  changes in blood and internal organs: no changes in the blood and internal organs
Analgetic effect in mice; 1/2 DMT
  effect on analgetic effect of analginum: intensified the analgetic effect of analginum
Analgetic effect in mice; 1/4 DMT
  effect on analgetic effect of morphine: intensified the analgetic effect of morphine
Analgetic effect in mice; mice
  lowest dose with analgetic effect: 1/4
Analgetic effect in mice; mice, 1/2 DMT
  duration of analgetic effect: three hours
Analgetic effect in mice; mice, DMT
  duration of analgesia: more than five hours
[5]
  peripheral adrenolytic effect: no peripheral adrenolytic effect
[6]; mice
  effect on toxicity of apomorphine: does not intensify the toxicity of apomorphine in mice
[6]; mouse, in vivo
  effect on duration of apomorphine stereotypy: nor does it affect the duration of apomorphine stereotypy
[7]
  sensitivity to convulsant effects of corasole and caffeine: increases the sensitivity of mice
[8]
  effect on hypothermal effect of aminazine (chlorpromazine): intensifies the hypothermal effect
[9]
  serotonin content in brain tissue: decreases the serotonin content
[10]
  toxicity: limited toxicity
[10]; iv, injected intravenously, species not given
  LD50: 293 mg/kg
[10]; mouse, mice, read-out: DMT (tolerance dose)
  MTD: 200 mg/kg
Body temperature of mice; 30 mg/kg (1/7 DMT)
  effect on body temperature: no effect
Body temperature of mice; 60 mg/kg (printed 166 DMT)
  effect on body temperature: no effect
Body temperature of mice; 1.5 hours
  decrease of body temperature (hypothermal effect): 4.3 °C
Body temperature of mice; 3 hours
  decrease of body temperature (hypothermal effect): 3.4 °C
[11]; 8 to 12 weeks
  electrocardiography: nor are there any changes that could be detected by electrocardiography
  morphological and biochemical composition of the blood: does not change the morphological and biochemical composition of the blood
[11]; clinical
  habit formation: not habit-forming
  toxicity: low toxicity
[11]; human, in vivo
  contraindication: gastric ulcer with a tendency to frequency exacerbations
  impediment to drivers: no impediment to drivers
[11]; prolonged administration
  side effects or complications: no side effects or complications
[12]
  changes in blood and internal organs: no changes in the blood and internal organs
monoaminooxidaze
  suppression of monoaminooxidaze activity: does not suppress the monoaminooxidaze activity
[13]; 18 cases
  dysphorias and patients' behavior: dysphorias were better endured, and the patients' behavior became more controlled
  electroencephalography: reduction in the paroxysmal activity and normalization of recordings
[13]; of 18 cases
  cases in which attacks ceased completely or frequency reduced by more than half: 14 cases
[14]; 8 of 11 patients
  vegetovascular crises: reduced number or even complete eliminationn of vegetovascular crises
[14]; of 11 patients, end of the first week
  patients with significant improvement: 8 patients
[15]; animals
  sedative effect: pronounced sedative effect
[15]; mice and rats
  lowest dose causing depression: 1/3
[15]; mice and rats, tolerance doses, beginning with 1/3 DMT
  depression (without "on-side" position): causes depression in mice and rats
[16]
  patients with considerable improvement: 20
[17]
  shelf life: longer than two years
[17]; powder and solution
  chemical stability: chemically stable both in the form of powder and solution
[18]; barbamil
  lowest dose potentiating barbamil: 1/5
[18]; hexenal given 2 and 22 hours after the preparation
  duration of hexenal sleep: induces sleep of equal duration
[18]; in vivo
  potentiation of narcotics and soporifics: potentiates hexenal, barbamil, urethane and chloral hydrate; also recorded: exhibits the properties of a true Brodie potentiator
[19]
  prevention of convulsions: does not prevent convulsions
[20]
  epileptic seizures: prevents or reduces the frequency of epileptic seizures
[21]
  nicotine-induced convulsions: relieve nicotine-induced convulsions in mice
[21]; nicotine-induced convulsions
  increase of survival rate: 50%
[22]; human, in vivo
  tranquilizer strength: relatively weak tranquilizer
[22]; neuroses
  night sleep effect: light night sleep compeller
  onset of sleep: accelerates the onset of sleep
[22]; neurotic and psychic disorders with vegetovascular disturbances and epileptic fits without convulsions
  efficacy versus known drugs: superior in this respect to the known drugs
[22]; patients
  side effects or complications: no side effects or complications
  tolerance: good tolerance
[22]; patients, versus benzodiazepin derivatives
  relaxation effect: absence to a marked relaxation effect
Phenamine stereotypy; great doses
  advent of phenamine stereotypy: prevents the advent
Phenamine stereotypy; rats, 10 mg/kg to 400 mg/kg
  duration of phenamine stereotypy: statistically reliable reduction
cholinesterase
  anticholinesterase properties: do not possess anticholinesterase properties
[23]
  effect on orientating reaction: affects the orientating reaction in mice
Lethal dose of cocaine
  prevention of death of mice: 60%
[24]
  antagonism of serotonin on separated intestine: prevents the action of serotonin
